Measurements from US12564595B2, “Prophylactic and therapeutic pharmaceutical agent for HIV infectious diseases characterized by comprising combination of integrase inhibitor and anti-HIV agent” (Shionogi & Co., Ltd., priority 2019, dated 2026).
Where two headings read alike, the source gives them in different places.

Experiments:
HIV = assay: microbe, parasite or virus in culture; type: cell-based; details: Human immunodeficiency virus 1, MT4, 96 h, read-out: EC50 (50% HIV inhibition concentration), MT-4 cells, HIV, cultured four days, MTT
Experimental: A serial dilution series of test samples was prepared in 96-well microplates (50 μL/well).
100 μL/well in each case were dispensed onto plates having test samples of 2.5×10^5/mL MT-4 cell suspension, and HIV virus solution was then dispensed thereto in the amount of 50 μL/well. Mixing was performed using a plate mixer and culturing was performed for four days in a CO2 incubator. MTT (3-(4,5-dimethylthiazol-2-yl)-2,5-diphenyltetrazolium bromide) liquid was dispensed into each well in the amount of 30 μL in each case. The reaction was conducted for 1 h in a CO2 incubator. 150 μL of supernatant were removed from each well, taking care not to aspirate any cells. 150 μL of cell solution were added, and thorough mixing was performed with a plate mixer until all the cells had been dissolved. The optical absorbance of the mixed plates was measured at two wavelengths: 560 nm/690 nm, with a microplate reader.

[1] = Test Example 8: metabolic stability test; type: in vitro ADME, human; details: pooled human liver microsomes, 30 min at 37° C., NADPH, compound concentration 0.5 μmol/L
Experimental: The extent of metabolization of the compound according to the present invention in the liver was evaluated by reacting commercially available pooled human liver microsomes with the compound according to the present invention for a fixed time and calculating the remaining percentage by comparing the reaction sample with an unreacted sample.
The reaction (oxidative reaction) was conducted for 0 min or 30 min at 37° C. in the presence of 1 mmol/L of NADPH, in a 0.2 mL buffer solution containing 0.5 mg of human liver microsome protein/mL (50 mmol/L Tris-HCl pH 7.4, 150 mmol/L potassium chloride, 10 mmol/L magnesium chloride). After the reaction, 50 μL of reaction liquid were added to 100 μL of methanol/acetonitrile=1/1 (v/v) solution, mixed, and centrifuged for 15 minutes at 3000 rpm. The compound according to the present invention in the centrifuged supernatant was quantified using LC/MS/MS or solid phase extraction (SPE)/MS; the residual amount of the compound according to the present invention after the reaction was calculated, taking the amount of the compound at the 0 min reaction point as 100%.

[2] = system: HIV mutant strain 2 (E92Q/E138T/G140S/Q148H); assay: Test Example 2: resistance evaluation test (HeLa-CD4 reporter), mutant strain 2; type: cell-based; details: FC=EC50 of mutant strain/EC50 of wild strain; HeLa-CD4 cells
Experimental: (§1) A serial dilution series of test samples in 96-well microplates was prepared (50 […]).
(§2) 2.5×10^4/mL of HeLa-CD4 cell suspension was dispensed into each of the microplates containing test sample, in the amount of 100 μL/well, and HIV virus liquid (wild strain and mutant strain) was then dispensed in an amount of 50 μL/well. Mixing was performed using a plate mixer and culturing was performed for three days in a CO2 incubator. After removing the cultured supernatant of each well by suction, 100 μL of the cell solution buffer in the reporter measurement kit was dispensed thereto, and freezing was conducted in a refrigerator (−80° C.). The plates frozen in the refrigerator were defrosted at room temperature, then mixed using a plate mixer and centrifuged for 5 min at 1,200 rpm. The supernatant of each well was divided to 96-well microplates (BLACK) in the amount of 20 μL in each case. The chemiluminescence reagent in the reporter assay kit was dispensed in the amount of 100 μL in each case, and, after reacting for about 1 h at room temperature, the amount of luminescence was measured using a MicroBeta TRILUX.
(§3) The degree of resistance (fold change (FC)) of each mutant strain was also calculated using the following formula. FC=EC50 of mutant strain/EC50 of wild strain (Results)
(§4) The results of the example compounds relating to formula (I) of (A) are shown below. The […] in respect of mutant strain 1 (E138K/G140S/Q148H/N155H) and the FC in respect of mutant strain 2 (E92Q/E138T/G140S/Q148H) are shown in the Table.

[3] = system: HIV mutant strain 1 (E138K/G140S/Q148H/N155H); assay: Test Example 2: resistance evaluation test (HeLa-CD4 reporter), mutant strain 1; type: cell-based; details: FC=EC50 of mutant strain/EC50 of wild strain; HeLa-CD4 cells
Experimental: as §1, §2, §3, §4

[4] = compounds of formula (I) of (A)

Row | Compound | EC50 (HIV; [4]) [nM] | Remaining percentage [1] [%] | FC in respect of mutant strain 2 (E92Q/E138T/G140S/Q148H) [2] | FC in respect of mutant strain 1 (E138K/G140S/Q148H/N155H) [3] | EC50 (HIV; compounds of formula (I′) of (B)) [nM]
1 | CCN1C(=O)c2c(O)c(=O)c(C(=O)NCc3ccc(F)cc3F)cn2N2CC[C@@H](C)C[C@@H]12 [II-068] | 0.25 | 82.9 | 4.2 | 7 | –
2 | CCN1C(=O)c2c(O)c(=O)c(C(=O)NCc3c(F)cc(F)cc3F)cn2N2[C@H](COC)CC[C@@H]12 [II-093] | 0.22 | 96.1 | 25 | 49 | –
3 | CN1C(=O)c2c(O)c(=O)c(-c3nnc(Cc4ccc(F)cc4F)s3)cn2N2CCOC[C@@H]12 [II-102] | 1.3 | 106 | 22 | 25 | –
4 | CCN1C(=O)c2c(O)c(=O)c(-c3nnc(Cc4c(F)cc(F)cc4F)s3)cn2N2C[C@@H](C)C[C@@H]12 [II-112] | 1.9 | 90.5 | 7 | 4.7 | –
5 | C[C@@H]1CC[C@H]2N(C)C(=O)c3c(O)c(=O)c(-c4nnc(Cc5ccc(F)cc5F)s4)cn3N12 [II-113] | 0.66 | 85.3 | 6.5 | 7.2 | –
6 | CN1C(=O)c2c(O)c(=O)c(-c3nnc(Cc4cccc(Cl)c4F)s3)cn2N2CCOC[C@@H]12 [II-122] | 0.24 | 102 | 25 | 30 | –
7 | C[C@@H]1CCC[C@H]2N(C)C(=O)c3c(O)c(=O)c(-c4nnc(Cc5ccc(F)cc5F)s4)cn3N12 [II-124] | 3.5 | 103 | 11 | 6.8 | –
8 | CCN1C(=O)c2c(O)c(=O)c(-c3nnc(Cc4c(F)cc(F)cc4F)s3)cn2N2[C@H](C)CCC[C@@H]12 [II-125] | 1.4 | 88.5 | 26 | 11 | –
9 | CCN1C(=O)c2c(O)c(=O)c(-c3nnc(Cc4c(F)cc(F)cc4F)s3)cn2N2C[C@@H]3CC[C@@H](O3)[C@@H]12 [II-126] | 0.6 | 97.2 | 20 | 17 | –
10 | CCN1C(=O)c2c(O)c(=O)c(-c3nnc(Cc4ccc(F)cc4F)s3)cn2N2C[C@@H]3CC[C@@H](O3)[C@@H]12 [II-127] | 0.74 | 100 | 19 | 7.9 | –
11 | CCN1C(=O)c2c(O)c(=O)c(-c3nnc(Cc4ccc(F)cc4)s3)cn2N2C[C@@H]3CC[C@@H](O3)[C@@H]12 [II-128] | 0.66 | 103 | 29 | 20 | –
12 | CCN1C(=O)c2c(O)c(=O)c(-c3nnc(Cc4ccc(F)cc4F)s3)cn2N2C[C@@H]3CC[C@@H](C3)[C@@H]12 [II-130] | 0.66 | 92.9 | 3.9 | 2.5 | –
13 | CCN1C(=O)c2c(O)c(=O)c(-c3nnc(Cc4c(F)cc(F)cc4F)s3)cn2N2C[C@@H]3CC[C@@H](C3)[C@@H]12 [II-131] | 0.66 | 83.4 | 3.5 | 2.3 | –
14 | CN1C(=O)c2c(O)c(=O)c(-c3nnc(Cc4ccc(F)cc4F)s3)cn2N2C[C@@H]3CC[C@@H](C3)[C@@H]12 [II-138] | 0.14 | 93.9 | 11 | 15 | –
15 | CCN1C(=O)c2c(O)c(=O)c(-c3nnc(Cc4c(F)cc(F)cc4F)s3)cn2N2CC[C@@H](C)C[C@@H]12 [II-143] | 1.7 | 82.5 | 3.6 | 3 | –
16 | C[C@@H]1CCN2[C@@H](C1)N(C)C(=O)c1c(O)c(=O)c(-c3nnc(Cc4c(F)cc(F)cc4F)s3)cn12 [II-144] | 0.69 | 94.2 | 6.1 | 6.1 | –
17 | CCN1C(=O)c2c(O)c(=O)c(-c3nnc(Cc4c(F)cc(F)cc4F)s3)cn2N2CC[C@H](C)C[C@@H]12 [II-147] | 1.8 | 91.5 | 7.3 | 5.1 | –
18 | CCN1C(=O)c2c(O)c(=O)c(-c3nnc(Cc4cc(F)c(F)cc4F)s3)cn2N2C[C@@H]3CC[C@@H](C3)[C@@H]12 [II-148] | 5.2 | 71.7 | 6.6 | 8.3 | –
19 | CN1C(=O)c2c(O)c(=O)c(-c3nnc(Cc4c(F)cc(F)cc4F)s3)cn2N2C[C@@H]3CC[C@@H](C3)[C@@H]12 [II-149] | 0.6 | 96.5 | 12 | 14 | –
20 | COC[C@@H]1CC[C@H]2N(C)C(=O)c3c(O)c(=O)c(-c4nnc(Cc5c(F)cc(F)cc5F)s4)cn3N12 [II-151] | 0.37 | 94.6 | 17 | 27 | –
21 | CCN1C(=O)c2c(O)c(=O)c(-c3nnc(Cc4ccc(F)cc4F)s3)cn2N2C[C@@H](C)CC[C@@H]12 [II-155] | 0.3 | 93 | 5.1 | 5.2 | –
22 | Cc1ccc(-c2c([C@H](OC(C)(C)C)C(=O)O)c(C)c3c4c2cc(C)n4CCN3c2ncc(CN(C)C)cn2)cc1 [I′-304] | – | – | – | – | 4.1
